Assays:
Type in all cases: biochemical, bacterial isolate LBAA (Pseudomonas strain LBAA)
Conditions in all cases: substrate glyphosate
[1] = target: LBAA glyphosate oxidoreductase variant w1v2v3 (SER84, ARG153, ARG334) (Ochrobactrum sp. G-1, UniProt D2KI28, H334R/K153R/S2A); experiment: Kinetic analysis of domain switches, clone w1v2v3
Procedure: (§1) The mutagenesis procedure used was that of Mn++-poisoned PCR and the template was a linearized glyphosate oxidoreductase gene plasmid containing the synthetic glyphosate oxidoreductase gene (SEQ ID NO:8). The oligonucleotide primers used were homologous to regions in the vector and flanking the glyphosate oxidoreductase gene. The PCR conditions employed were as follows: 1 minute at 94° C., 2 minutes at 55° C., and 3 minutes at 72° C. and with 35 cycles. A 5:1 ratio of dCTP+dGTP+TTP to dATP was used. The reactions contained MnCl2 at 125, 250, 375, or 500 μM. After the reaction, the amplified product was recloned into a vector containing a weak E. coli promoter. This vector was a pBR327 derivative containing the araBAD promoter and suitable cloning sites. […] Growth rates were determined by measuring A550 over a 96 hour period. […] Protein concentrations were determined using the Bio-Rad protein dye-binding assay. […] Ten minutes was determined to be the optimal time for the enzyme assay using 10 μg lysate. […] Enzyme activity was determined from the amount of glyoxylate-DNPH adduct formed by measuring A520 against a standard of glyoxylate. […] The Km and Vmax were determined from Lineweaver Burk, Eadie-Hofstee and hyperbolic kinetic plots. […]

[2] = target: LBAA glyphosate oxidoreductase variant w1w2v3 (SER84, LYS153, ARG334) (Ochrobactrum sp. G-1, UniProt D2KI28, H334R/S2A); experiment: Kinetic analysis of domain switches, clone w1w2v3
Procedure: as §1

[3] = target: LBAA glyphosate oxidoreductase variant w1v2w3 (SER84, ARG153, HIS334) (Ochrobactrum sp. G-1, UniProt D2KI28, K153R/S2A); experiment: Kinetic analysis of domain switches, clone w1v2w3
Procedure: as §1

[4] = target: LBAA glyphosate oxidoreductase variant v1w2w3 (GLY84, LYS153, HIS334) (Ochrobactrum sp. G-1, UniProt D2KI28, S2A/S84G); experiment: Kinetic analysis of domain switches, clone v1w2w3
Procedure: as §1

[5] = target: LBAA glyphosate oxidoreductase variant v1v2w3 (GLY84, ARG153, HIS334) (Ochrobactrum sp. G-1, UniProt D2KI28, K153R/S2A/S84G); experiment: Kinetic analysis of domain switches, clone v1v2w3
Procedure: as §1

[6] = target: LBAA glyphosate oxidoreductase variant v1w2v3 (GLY84, LYS153, ARG334) (Ochrobactrum sp. G-1, UniProt D2KI28, H334R/S2A/S84G); experiment: Kinetic analysis of domain switches, clone v1w2v3
Procedure: as §1

Q: How did the VmKm [1] turn out when `O=C(O)CNCP(=O)(O)O` [glyphosate, N-phosphonomethyl-glycine] was run?
A: 0.28

Q: What about the VmKm [2] of the same molecule?
A: 0.375

Q: And the VmKm [3]?
A: 0.026

Q: What about the VmKm [4] of the same molecule?
A: 0.027

Q: And the VmKm [5]?
A: 0.021

Q: What about the VmKm [6] of the same molecule?
A: 0.21
